Test results: patent US20240279230A1, “CRYSTALLINE FORMS OF A HER2 INHIBITOR” (Boehringer Ingelheim International GmbH, priority 2022, published 2024)
Entries after “also recorded” stand apart in the source; their conditions may differ. One block for each molecule: values may come before it.

Key:
Assay type in all cases: physicochemical
[1] = Thermogravimetric Analysis (TGA); conditions: 20° C./min
Procedure: The methodology for this can be as follows. Solid compounds (˜5 mg) are placed in an aluminium pan and sealed. The instrument used for the analysis is a TA Instruments TGA 550. The same sample lots from DSC testing are used for TGA testing. Processing is completed using TRIOS software.

[2] = Temperature stress tests with form I, form II and form VI, PXRD; conditions: 6 h at 150° C. (closed vial)
[3] = Dynamic Vapor Sorption (DVS) sorption isotherms, hygroscopic behaviour; conditions: for Hygroscopicity: DVS classification; for Δm (0-80%), moisture absorbed at 80% RH / Δm (0-90%), maximum water uptake: DVS, 25.0 ±1.0° C.; for Δm (0-90%), maximum water uptake: up to 90% RH; for Phase change during DVS experiment: RH cycled twice 0% to 90% to 0%; for Hysteresis: between sorption and desorption curves
Procedure: The methodology for this can be as follows. The mass of the solids is monitored as the relative humidity (RH) was deliberately changed. The RH is cycled twice from 0% to 90% to 0% in 10% steps. The temperature during measurement is kept constantly at (25.0 ±1.0° C.) Each step is held until mass stability was achieved. A camera inside the instrument captured an image at the conclusion of each stage, allowing for the observation of any visual changes in the solid form during the analysis.

[4] = Polymorphic stability of form III and form IV under stress storage, PXRD; conditions: 21 days;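 further: open storage at 90 °C with 3% RH or 78% RH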
Procedure: A Bruker D2 Phaser X-Ray Diffractometer (XRD, EQ-SSRD-XRD-01) can be used for characterizing the samples. Raw results are evaluated using DIFFRAC.EVA (Bruker, V5.0) software. The Kα2 contribution was stripped, and a peak search was performed using peak search parameters (width 0.302 and threshold 1.0).
A test sample (approximately 0.3 g) is representatively subsampled into an agate-type mortar and pestle. Sample is ground for approximately one minute to achieve a fine homogenous powder. Sample is then transferred into a stainless-steel sample holder fitted with a zero-diffraction plate (ZDP). The sample holder is then levelled off with a glass slide to create a flat sample surface level with the sample holder.

[5] = Chemical stability of solid state forms under temperature/humidity stress, related substances by HPLC at 252 nm; design: Impurity I / Impurity A / Impurity B / Impurity C / Impurity D / Impurity E / Impurity F / Impurity G / Impurity H: unit not given here
Excerpt: To do so, control samples are stored refrigerated in the presence of desiccant for the duration of the study and measured simultaneously with stressed samples by HPLC at a wavelength of 252 nm.

[6] = Control 1, stored refrigerated with desiccant
[7] = Control 2, stored refrigerated with desiccant
[8] = Control 3, stored refrigerated with desiccant

TGA change in mass ([1]; Decomposition): 47.883%
TGA end ([1]; Decomposition): 463.12 °C
TGA onset ([1]; Decomposition): 419.14 °C
PXRD of stressed sample [2]: Form I
Hygroscopicity [3]: hygroscopic
Hygroscopicity ([3]; listed as form I): hygroscopic
Δm (0-80%), moisture absorbed at 80% RH [3]: 5.4 wt %
Δm (0-80%), moisture absorbed at 80% RH ([3]; listed as form I): 5.4 wt %
Δm (0-90%), maximum water uptake [3]: 7.3 wt %
Δm (0-90%), maximum water uptake ([3]; listed as form I): 7.3 wt %
Phase change during DVS experiment [3]: no irreversible phase changes
Hysteresis [3]: yes
Hysteresis ([3]; listed as form I): significant hysteresis
SMILES: C=CC(=O)NC1CCN(c2ncc3ncnc(Nc4ccc(Oc5ccc6c(c5)ncn6C)c(C)c4)c3n2)CC1 [Form I, N-{1-[8-({3-methyl-4-[(1-methyl-1H-1,3-benzodiazol-5-yl)oxy]phenyl}amino)-[1,3]diazino[5,4-d]pyrimidin-2-yl]piperidin-4-yl}prop-2-enamide]
PXRD of stressed sample ([2]; listed as form I): remained unchanged; also recorded: polymorphically stable

TGA change in mass ([1]; Decomposition): 60.862%
TGA onset ([1]; Decomposition): 420.47 °C
TGA change in mass ([1]; Small mass loss event): 1.129%
TGA end ([1]; Small mass loss event): 240.02 °C
TGA onset ([1]; Small mass loss event): 231.13 °C
TGA change in mass ([1]; Small mass loss event, listed as form III): around 1%
Polymorphic stability by PXRD ([4]; open storage 90° C./3% RH, listed as form III): neither form underwent phase changes
Polymorphic stability by PXRD ([4]; open storage 90° C./78% RH, listed as form III): neither form underwent phase changes
Change in visual appearance during the humidity cycles ([3]; DVS camera images): No change in the visual appearance
Hygroscopicity [3]: slightly hygroscopic
Hygroscopicity ([3]; listed as form III): slightly hygroscopic
Δm (0-80%), moisture absorbed at 80% RH [3]: 1.2 wt %
Δm (0-80%), moisture absorbed at 80% RH ([3]; listed as form III): 1.2 wt %
Δm (0-90%), maximum water uptake [3]: 1.7 wt %
Δm (0-90%), maximum water uptake ([3]; listed as form III): 1.7 wt %
Hysteresis [3]: no
Hysteresis ([3]; listed as form III): lack of hysteresis
Color change after stressing ([5]; 60-90° C., 3-79% RH, up to 21 days): No color changes
Impurity A ([5]; 60° C./75% RH, 21 days): 0.067
Impurity B ([5]; 60° C./75% RH, 21 days): 0.012
Impurity C ([5]; 60° C./75% RH, 21 days): 0.023
Impurity D ([5]; 60° C./75% RH, 21 days): 0.134
Impurity E ([5]; 60° C./75% RH, 21 days): 0.057
Impurity F ([5]; 60° C./75% RH, 21 days): 0
Impurity G ([5]; 60° C./75% RH, 21 days): 0.019
Impurity H ([5]; 60° C./75% RH, 21 days): 0.140
Impurity I ([5]; 60° C./75% RH, 21 days): 0.014
Impurity A ([5]; 70° C./62% RH, 21 days): 0.064
Impurity B ([5]; 70° C./62% RH, 21 days): 0.012
Impurity C ([5]; 70° C./62% RH, 21 days): 0.024
Impurity D ([5]; 70° C./62% RH, 21 days): 0.119
Impurity E ([5]; 70° C./62% RH, 21 days): 0.059
Impurity F ([5]; 70° C./62% RH, 21 days): 0.006
Impurity G ([5]; 70° C./62% RH, 21 days): 0.019
Impurity H ([5]; 70° C./62% RH, 21 days): 0.139
Impurity I ([5]; 70° C./62% RH, 21 days): 0.015
Impurity A ([5]; 75° C./41% RH, 21 days): 0.066
Impurity B ([5]; 75° C./41% RH, 21 days): 0.011
Impurity C ([5]; 75° C./41% RH, 21 days): 0.025
Impurity D ([5]; 75° C./41% RH, 21 days): 0.118
Impurity E ([5]; 75° C./41% RH, 21 days): 0.062
Impurity F ([5]; 75° C./41% RH, 21 days): 0.009
Impurity G ([5]; 75° C./41% RH, 21 days): 0.019
Impurity H ([5]; 75° C./41% RH, 21 days): 0.136
Impurity I ([5]; 75° C./41% RH, 21 days): 0.010
Impurity A ([5]; 75° C./79% RH, 17 days): 0.066
Impurity B ([5]; 75° C./79% RH, 17 days): 0.012
Impurity C ([5]; 75° C./79% RH, 17 days): 0.031
Impurity D ([5]; 75° C./79% RH, 17 days): 0.106
Impurity E ([5]; 75° C./79% RH, 17 days): 0.074
Impurity F ([5]; 75° C./79% RH, 17 days): 0
Impurity G ([5]; 75° C./79% RH, 17 days): 0.005
Impurity H ([5]; 75° C./79% RH, 17 days): 0.135
Impurity I ([5]; 75° C./79% RH, 17 days): 0.015
Impurity A ([5]; 80° C./11% RH, 21 days): 0.066
Impurity B ([5]; 80° C./11% RH, 21 days): 0.011
Impurity C ([5]; 80° C./11% RH, 21 days): 0.025
Impurity D ([5]; 80° C./11% RH, 21 days): 0.123
Impurity E ([5]; 80° C./11% RH, 21 days): 0.054
Impurity F ([5]; 80° C./11% RH, 21 days): 0.007
Impurity G ([5]; 80° C./11% RH, 21 days): 0.024
Impurity H ([5]; 80° C./11% RH, 21 days): 0.141
Impurity I ([5]; 80° C./11% RH, 21 days): 0.015
Impurity A ([5]; 80° C./61% RH, 17 days): 0.052
Impurity B ([5]; 80° C./61% RH, 17 days): 0.013
Impurity C ([5]; 80° C./61% RH, 17 days): 0.024
Impurity D ([5]; 80° C./61% RH, 17 days): 0.096
Impurity E ([5]; 80° C./61% RH, 17 days): 0.060
Impurity F ([5]; 80° C./61% RH, 17 days): 0.009
Impurity G ([5]; 80° C./61% RH, 17 days): 0.020
Impurity H ([5]; 80° C./61% RH, 17 days): 0.137
Impurity I ([5]; 80° C./61% RH, 17 days): 0.015
Impurity A ([5]; 90° C./3% RH, 21 days): 0.064
Impurity B ([5]; 90° C./3% RH, 21 days): 0.012
Impurity C ([5]; 90° C./3% RH, 21 days): 0.033
Impurity D ([5]; 90° C./3% RH, 21 days): 0.087
Impurity E ([5]; 90° C./3% RH, 21 days): 0.073
Impurity F ([5]; 90° C./3% RH, 21 days): 0
Impurity G ([5]; 90° C./3% RH, 21 days): 0.007
Impurity H ([5]; 90° C./3% RH, 21 days): 0.140
Impurity I ([5]; 90° C./3% RH, 21 days): 0.016
Impurity A ([5]; 90° C./41% RH, 10 days): 0.066
Impurity B ([5]; 90° C./41% RH, 10 days): 0.013
Impurity C ([5]; 90° C./41% RH, 10 days): 0.025
Impurity D ([5]; 90° C./41% RH, 10 days): 0.109
Impurity E ([5]; 90° C./41% RH, 10 days): 0.060
Impurity F ([5]; 90° C./41% RH, 10 days): 0
Impurity G ([5]; 90° C./41% RH, 10 days): 0.022
Impurity H ([5]; 90° C./41% RH, 10 days): 0.138
Impurity I ([5]; 90° C./41% RH, 10 days): 0.013
Impurity A ([5]; 90° C./78% RH, 21 days): 0.065
Impurity B ([5]; 90° C./78% RH, 21 days): 0.011
Impurity C ([5]; 90° C./78% RH, 21 days): 0.023
Impurity D ([5]; 90° C./78% RH, 21 days): 0.112
Impurity E ([5]; 90° C./78% RH, 21 days): 0.057
Impurity F ([5]; 90° C./78% RH, 21 days): 0.006
Impurity G ([5]; 90° C./78% RH, 21 days): 0.021
Impurity H ([5]; 90° C./78% RH, 21 days): 0.133
Impurity I ([5]; 90° C./78% RH, 21 days): 0.014
Impurity A [5, 6]: 0.059
Impurity B [5, 6]: 0.012
Impurity C [5, 6]: 0.026
Impurity D [5, 6]: 0.127
Impurity E [5, 6]: 0.049
Impurity F [5, 6]: 0.008
Impurity G [5, 6]: 0.016
Impurity H [5, 6]: 0.139
Impurity I [5, 6]: 0.014
Impurity A [5, 7]: 0.051
Impurity B [5, 7]: 0.010
Impurity C [5, 7]: 0.023
Impurity D [5, 7]: 0.097
Impurity E [5, 7]: 0.057
Impurity F [5, 7]: 0.006
Impurity G [5, 7]: 0.019
Impurity H [5, 7]: 0.136
Impurity I [5, 7]: 0.016
Impurity A [5, 8]: 0.069
Impurity B [5, 8]: 0.010
Impurity C [5, 8]: 0.024
Impurity D [5, 8]: 0.143
Impurity E [5, 8]: 0.051
Impurity F [5, 8]: 0.007
Impurity G [5, 8]: 0.019
Impurity H [5, 8]: 0.139
Impurity I [5, 8]: 0.016
Chemical stability in the solid state ([5]; up to 21 days at 90° C./78% RH): chemically very stable
SMILES: C=CC(=O)NC1CCN(c2ncc3ncnc(Nc4ccc(Oc5ccc6c(c5)ncn6C)c(C)c4)c3n2)CC1 [Form III, N-{1-[8-({3-methyl-4-[(1-methyl-1H-1,3-benzodiazol-5-yl)oxy]phenyl}amino)-[1,3]diazino[5,4-d]pyrimidin-2-yl]piperidin-4-yl}prop-2-enamide]
Polymorphic stability by PXRD ([4]; open storage 90° C./3% RH): stable and conformed to form III reference standard
Polymorphic stability by PXRD ([4]; open storage 90° C./78% RH): stable and conformed to form III reference standard
Phase change during DVS experiment [3]: no indication of irreversible phase conversion or hydrate formation; also recorded: no irreversible phase changes
Increase in related substances ([5]; accelerated stress conditions, up to 21 days at 90° C./78% RH): no significant increase in any related substance
